Several values for one entry are separate records, joined by “and”; a condition that tells them apart may be missing. Equal entries are not always repeated.
Legend:
SARS-CoV-2 3CLPro = SARS-CoV-2 3CLPro (Severe acute respiratory syndrome coronavirus 2, UniProt P0DTD1); test: Native-PAGE binding with SARS-CoV-2 viral 3CLPro (Example 8); conditions: 62.5-1000 μM samples mixed with 40 μM 3CLPro, 4° C., 3 hours
SARS-CoV-2 = SARS-CoV-2 virucidal assay in Vero E6 cells (qPCR of viral genome); assay type: cell-based; conditions: Vero E6, MOI=0.01, 24 h
3CLPro = 3CLPro (Severe acute respiratory syndrome coronavirus 2, UniProt P0DTD1); conditions: cited from earlier work; for IC50: read-out: IC50 (inhibition of 3CLPro), summary of Table 3
2019-nCoV 3CLPro = 2019-nCoV 3CLPro (Severe acute respiratory syndrome coronavirus 2, UniProt P0DTD1); test: 2019-nCoV 3CLPro proteolytic activity, fluorogenic substrate, samples at 3 μM (Example 4); assay type: biochemical; conditions: estimated from single concentration 3 μM; read-out: approximately half maximal inhibition (IC50) at the concentration

In the case of `O=C(O)c1cc(O)c(O)c(O)c1` [GA, gallic acid], the “binding to SARS-CoV-2 3CLPro by native-PAGE (mobility shift)” value (“binding … (mobility shift)” for short) (SARS-CoV-2 3CLPro) is reported as “no significant binding”.

For `CCC(CC)COC(=O)[C@H](C)N[P@](=O)(OC[C@H]1O[C@@](C#N)(c2ccc3c(N)ncnn23)[C@H](O)[C@@H]1O)Oc1ccccc1` [Remdesivir], the EC99 (SARS-CoV-2; cell layer) was 15 µM and 15.000 µM and the EC99 (SARS-CoV-2; supernatant) was 15 µM and 15.000 µM.

In the case of `CC(C)(C)NC(=O)[C@@H]1C[C@@H]2CCCC[C@@H]2CN1C[C@@H](O)[C@H](Cc1ccccc1)NC(=O)[C@H](CC(N)=O)NC(=O)c1ccc2ccccc2n1` [Saquinavir], the IC50 (3CLPro) is listed as greater than 100 µM.

For `O=C(OC[C@H]1O[C@H](OC(=O)c2cc(O)c(O)c(O)c2)[C@H](OC(=O)c2cc(O)c(O)c(O)c2)[C@@H](OC(=O)c2cc(O)c(O)c(O)c2)[C@@H]1OC(=O)c1cc(O)c(O)c(O)c1)c1cc(O)c(O)c(O)c1` [Sample 1], the potency estimated from few doses (2019-nCoV 3CLPro) was roughly 3 µM.

For `Cc1c(O)cccc1C(=O)N[C@@H](CSc1ccccc1)[C@H](O)CN1C[C@H]2CCCC[C@H]2C[C@H]1C(=O)NC(C)(C)C` [Nelfinavir], the IC50 (3CLPro) is given as greater than 100 µM.

For `O=C(OC[C@H]1O[C@@H](OC(=O)c2cc(O)c(O)c(O)c2)[C@H](OC(=O)c2cc(O)c(O)c(O)c2)[C@@H](OC(=O)c2cc(O)c(O)c(O)c2)[C@@H]1OC(=O)c1cc(O)c(O)c(O)c1)c1cc(O)c(O)c(O)c1` [Sample 2, (2S,3R,4S,5R,6R)-3,4,5-tris(3,4,5-trihydroxybenzoyloxy)-6-((3,4,5-trihydroxybenzoyloxy)methyl)oxan-2-yl 3,4,5-trihydroxybenzoate], the potency estimated from few doses (2019-nCoV 3CLPro) was roughly 3 µM.

In the case of `O=C(OC[C@H]1O[C@@H](OC(=O)c2cc(O)c(O)c(OC(=O)c3cc(O)c(O)c(O)c3)c2)[C@H](OC(=O)c2cc(O)c(O)c(OC(=O)c3cc(O)c(O)c(O)c3)c2)[C@@H](OC(=O)c2cc(O)c(O)c(OC(=O)c3cc(O)c(O)c(O)c3)c2)[C@@H]1OC(=O)c1cc(O)c(O)c(OC(=O)c2cc(O)c(O)c(O)c2)c1)c1cc(O)c(O)c(OC(=O)c2cc(O)c(O)c(O)c2)c1` [Sample 4, (2S,3R,4S,5R,6R)-3,4,5-tris(3,4-dihydroxy-5-(3,4,5-trihydroxybenzoyloxy)benzoyloxy)-6-((3,4-dihydroxy-5-(3,4,5-trihydroxybenzoyloxy)benzoyloxy)methyl)oxan-2-yl 3,4-dihydroxy-5-(3,4,5-trihydroxybenzoyloxy)benzoate], the “binding … (mobility shift)” value (SARS-CoV-2 3CLPro) is reported as “significant binding”.

For `O=C(OC[C@H]1O[C@@H](OC(=O)c2cc(O)c(O)c(OC(=O)c3cc(O)c(O)c(OC(=O)c4cc(O)c(O)c(O)c4)c3)c2)[C@H](OC(=O)c2cc(O)c(O)c(OC(=O)c3cc(O)c(O)c(OC(=O)c4cc(O)c(O)c(O)c4)c3)c2)[C@@H](OC(=O)c2cc(O)c(O)c(OC(=O)c3cc(O)c(O)c(OC(=O)c4cc(O)c(O)c(O)c4)c3)c2)[C@@H]1OC(=O)c1cc(O)c(O)c(OC(=O)c2cc(O)c(O)c(OC(=O)c3cc(O)c(O)c(O)c3)c2)c1)c1cc(O)c(O)c(OC(=O)c2cc(O)c(O)c(OC(=O)c3cc(O)c(O)c(O)c3)c2)c1` [Sample 6, (2S,3R,4S,5R,6R)-6-(((3-((3,4-dihydroxy-5-((3,4,5-trihydroxybenzoyl)oxy)benzoyl)oxy)-4,5-dihydroxybenzoyl)oxy)methyl)tetrahydro-2H-pyran-2,3,4,5-tetrayl tetrakis(3-((3,4-dihydroxy-5-((3,4,5-trihydroxybenzoyl)oxy)benzoyl)oxy)-4,5-dihydroxybenzoate)], the “binding … (mobility shift)” value (SARS-CoV-2 3CLPro) was “significant binding”.

For `Cc1cccc(C)c1OCC(=O)N[C@@H](Cc1ccccc1)[C@@H](O)C[C@H](Cc1ccccc1)NC(=O)[C@H](C(C)C)N1CCCNC1=O` [Lopinavir], the “IC50 of the 3CLPro (result in words)” value (3CLPro; 20 μM, Ma et al., 2020) is given as 20 μM, failed to inhibit and the IC50 (3CLPro) is given as greater than 100 µM.

In the case of `CCC[C@@]1(CCc2ccccc2)CC(O)=C([C@H](CC)c2cccc(NS(=O)(=O)c3ccc(C(F)(F)F)cn3)c2)C(=O)O1` [Tipranavir], the IC50 (3CLPro) is listed as greater than 100 µM.

Source: patent publication US11779561B2, “Compounds and pharmaceutical uses thereof” (priority 2020, dated 2023)
